What was measured:
Type in all cases: cell-based
[1] = system: OCI-Ly19; experiment: 72 hr CellTiter-Glo, DLBCL cell line; settings: Homo sapiens
[2] = system: ML-2; experiment: 72 hr CellTiter-Glo, AML cell line; settings: Homo sapiens
[3] = system: 6 DLBCL cell lines (TMD8, U2932, HBL1, OCI-LY-18, WSU-DLCL2, DOHH2); experiment: Cell cycle analysis and Annexin V staining; settings: 24, 48, 72 h
Procedure: FIGS. 18A and 18B show apoptosis and cell cycle distribution of TK-216 in DLBCL cell lines. FIG. 18A) Induction of apoptosis in DLBCL cell lines exposed to TK-216 (500 nM) for 24, 48 or 72 hrs. In the figures are shown four representative (two ABC and two GCB) results. FIG. 18B) Cell cycle distribution in DLBCL cell lines treated with 500 nM of TK-216 for 24, 48 or 72 hrs. In the figure, two representative (one ABC and one GCB) results are shown. DMSO treatment was used as a control.
56 lymphoma cell lines [27 diffuse large B cell lymphoma (DLBCL); 10 mantle cell lymphoma; 6 marginal zone lymphoma; 5 anaplastic large T-cell lymphoma; 8 others] were exposed to TK-216 increasing doses for 72 h using a Tecan D300e Digital Dispenser and 384 well plates. Cell proliferation was measured with MTT. In vivo study was done in NOD-SCID mice; treatments were started with approximately sc 60 mm3 tumor volumes. Sensitivity was not affected by the lymphoma cell of origin (B vs T; activated B cell type DLBCL versus germinal center type DLBCL) or MYC and TP53 status. There was a non-statistically significant trend for lower sensitivity in cell lines bearing BCL2 chromosomal translocation (P=0.07, DLBCL only; P=0.06, all cell lines).

[4] = system: MOLM-16; experiment: 72 hr CellTiter-Glo, AML cell line; settings: MOLM16
[5] = system: DLBCL cell lines; experiment: Combination with other targeted agents, summary over DLBCL cell lines
Procedure: The latter synergism could be linked to the previously mentioned negative trend between TK-216 IC50 values and the presence of BCL2 translocation.
(§1) Cell lines were exposed to YK-4-279 or TK-216, alone or in combination with other compounds, for 72 h using a Tecan D300e Digital Dispenser and 96 well plates. Cell proliferation was measured with MTT. Synergy was determined with the Chou-Talalay combination index. Gene expression profiling (GEP) was performed with the Illumina HumanHT 12 Expression BeadChips. In vivo studies were done in NOD-SCID mice and treatments started with 60 mm3 tumor volumes sc.
Since lenalidomide is active in mantle cell lymphoma (MCL), the synergism of the combination of TK-216 and lenalidomide was confirmed also in two MCL cell lines.

[6] = system: WSU-DLCL2; experiment: 72 hr CellTiter-Glo, DLBCL cell line; settings: Homo sapiens, WSUDLCL2
[7] = system: OCI-LY-10; experiment: Combination with other agents, MTT, Chou-Talalay combination index
Text: (§2) Y-axis: CI values. In each box-plot, the line in the middle of the box represents the median and the box extends from the 25th to the 75th percentile (interquartile range, IQ); the whiskers extend to the upper and lower adjacent values (i.e., ±1.5 IQ); outside values have been omitted from the figure. CIs for TK-216/rituximab in TMD8, TK-216/rituximab in Karpas422, TK-216/rituximab in OCI-LY-10 are not plotted due to CI values >3. Combinations tested included bendamustine, bortezomib, ibrutinib, idelalisib, lenalidomide, OTX015 (birabresib, CAS No. 202590-98-5), PQR309 (bimiralisib, CAS No. 1225037-39-7 (free base)), selinexor, venetoclax, and vincristine.
as §1

[8] = system: TMD8; experiment: as above
Text: as §2, §1

[9] = system: KARPAS422; experiment: as above
Text: as §2, §1

[10] = system: SU-DHL-4; experiment: as above
Text: as §2, §1

[11] = system: HL-60; experiment: 72 hr CellTiter-Glo, AML cell line; settings: Homo sapiens
[12] = system: IRF7; experiment: Protein levels in cells; settings: similarly to lenalidomide
Text: (§3) With the aim to understand the mechanism of action of YK-4-279 and TK-216, the baseline RNA expression levels of the different ETS factors were correlated with sensitivity to the drugs. SPIB was the gene presenting the most significant negative correlation with both YK-4-279 and TK-216, especially among the ABC DLBCL cell lines (P<0.05). SPIB is a known oncogene for ABC DLBCL (Lenz et al, PNAS 2008) and is involved in the response to lenalidomide in ABC DLBCL (Yang et al, Cancer Cell 2012). YK-4-279 inhibits the binding of EWS1-FLI1 to the helicases RHA and DDX5 (Selvanathan et al, PNAS 2012). Thus, it was assessed whether YK-4-279 and TK-216 can have a similar effect on SPIB and whether they induce cellular effects similar to lenalidomide. […] In ABC DLBCL, the ETS inhibitor YK-4-279 and its clinical derivative TK-216 interfere with SPIB and helicases involved in RNA editing. Moreover, both compounds act similarly to lenalidomide inhibiting IRF4 and upregulating IRF7 and synergize with the IMID in both ABC DLBCL and MCL.

[13] = system: IRF4; experiment: Protein levels in cells; settings: similarly to lenalidomide
Text: as §3

O=C(CC1(O)C(=O)Nc2c(Cl)ccc(Cl)c21)c1ccc(C2CC2)cc1 (stereo not shown) [TK216, 4,7-Dichloro-3-(2-(4-cyclopropylphenyl)-2-oxoethyl)-3-hydroxyindolin-2-one]
IC50 [1]: 106 nM | IC50 [2]: 291 nM | cell cycle and apoptosis [3]: time-dependent apoptosis was preceded by a G2/M arrest | IC50 [4]: 129 nM | combination of TK-216 with the BET inhibitor OTX015 (MK-8628) ([5]; with OTX015, DLBCL cell lines): synergism in 2/4 cells and additive effect in 1/4 cells | combination of TK-216 with the immunomodulator lenalidomide ([5]; with lenalidomide, activated B cell type DLBCL): synergism in 2/2 activated B cell type DLBCL | combination of TK-216 with the anti-CD20 monoclonal antibody rituximab ([5]; with rituximab, DLBCL cell lines): synergism in 2/3 cells | combination of TK-216 with the BCL2 inhibitor venetoclax ([5]; with venetoclax, DLBCL cell lines): synergism in 3/4 cells | IC50 [6]: 897 nM | effect of TK216 in combination with OTX015 ([7]; with OTX015): additive effect | effect of TK216 in combination with PQR309 ([7]; with PQR309): No benefit effects | effect of TK216 in combination with bendamustine ([7]; with bendamustine): No benefit effects | effect of TK216 in combination with bortezomib ([7]; with bortezomib): No benefit effects | effect of TK216 in combination with ibrutinib ([7]; with ibrutinib): additive effect | effect of TK216 in combination with idelalisib ([7]; with idelalisib): Synergism | effect of TK216 in combination with lenalidomide ([7]; with lenalidomide): Synergism | CI values, TK-216/rituximab ([7]; with rituximab, not plotted): > 3 | effect of TK216 in combination with selinexor ([7]; with selinexor): No benefit effects | effect of TK216 in combination with venetoclax ([7]; with venetoclax): Synergism | effect of TK216 in combination with vincristine ([7]; with vincristine): additive effect | effect of TK216 in combination with OTX015 ([8]; with OTX015): additive effect | effect of TK216 in combination with PQR309 ([8]; with PQR309): additive effect | effect of TK216 in combination with bendamustine ([8]; with bendamustine): No benefit effects | effect of TK216 in combination with bortezomib ([8]; with bortezomib): Synergism | effect of TK216 in combination with ibrutinib ([8]; with ibrutinib): additive effect | effect of TK216 in combination with lenalidomide ([8]; with lenalidomide): Synergism | effect of TK216 in combination with lidelalisib ([8]; with lidelalisib): additive effect | CI values, TK-216/rituximab ([8]; with rituximab, not plotted): > 3 | effect of TK216 in combination with selinexor ([8]; with selinexor): additive effect | effect of TK216 in combination with venetoclax ([8]; with venetoclax): Synergism | effect of TK216 in combination with vincristine ([8]; with vincristine): No benefit effects | effect of TK216 in combination with OTX015 ([9]; KARPAS422, with OTX015): Synergism | effect of TK216 in combination with PQR309 ([9]; KARPAS422, with PQR309): additive effect | effect of TK216 in combination with bendamustine ([9]; KARPAS422, with bendamustine): additive effect | effect of TK216 in combination with idelalisib ([9]; KARPAS422, with idelalisib): Synergism | effect of TK216 in combination with selinexor ([9]; KARPAS422, with selinexor): additive effect | effect of TK216 in combination with venetoclax ([9]; KARPAS422, with venetoclax): Synergism | effect of TK216 in combination with vincristine ([9]; KARPAS422, with vincristine): additive effect | CI values, TK-216/rituximab ([9]; Karpas422, with rituximab, not plotted): > 3 | effect of TK216 in combination with OTX015 ([10]; with OTX015): No benefit effects | effect of TK216 in combination with PQR309 ([10]; with PQR309): additive effect | effect of TK216 in combination with bendamustine ([10]; with bendamustine): No benefit effects | effect of TK216 in combination with idelalisib ([10]; with idelalisib): No benefit effects | effect of TK216 in combination with selinexor ([10]; with selinexor): No benefit effects | effect of TK216 in combination with venetoclax ([10]; with venetoclax): No benefit effects | effect of TK216 in combination with vincristine ([10]; with vincristine): Synergism | IC50 [11]: 363 nM | IRF7 protein in cells [12]: upregulated IRF7 | IRF4 protein in cells [13]: decreased IRF4

Reference: patent US11285132B2, “Uses of indolinone compounds” (Oncternal Therapeutics, Inc., priority 2016, dated 2022)
